According to ChEMBL document CHEMBL4813971, “Development of novel benzofuran-based SLC-0111 analogs as selective cancer-associated carbonic anhydrase isoform IX inhibitors” (Eur J Med Chem, 2021):

Legend:
[1] = target: T1, Carbonic anhydrase 9 (Homo sapiens, UniProt Q16790); test: Inhibition of human CA9 by stopped- flow CO2 hydration assay
[2] = target: Carbonic anhydrase 1 (Homo sapiens, UniProt P00915); test: Inhibition of human CA1 by stopped- flow CO2 hydration assay
[3] = system: MDA-MB-231; test: Antiproliferative activity against human MDA-MB-231 cells incubated for 2 days by MTT assay; conditions: MDA-MB-231, 48 h
[4] = system: MCF7; test: Antiproliferative activity against human MCF7 cells incubated for 2 days by MTT assay; conditions: MCF7, 48 h
[5] = target: T1, Carbonic anhydrase 9; test: Inhibition of human CA9 preincubated for 15 mins by phenol red dye based stopped flow CO2 hydration assay

Sequence of Carbonic anhydrase 1 (P00915 whole entry): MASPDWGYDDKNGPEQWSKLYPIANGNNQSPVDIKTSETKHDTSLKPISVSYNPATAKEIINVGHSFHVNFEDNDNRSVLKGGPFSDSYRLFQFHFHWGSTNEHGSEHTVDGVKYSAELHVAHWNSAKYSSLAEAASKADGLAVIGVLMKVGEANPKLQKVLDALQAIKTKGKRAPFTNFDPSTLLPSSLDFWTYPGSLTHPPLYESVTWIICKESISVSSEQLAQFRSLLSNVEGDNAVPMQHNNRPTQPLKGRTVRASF

SMILES | Ki [1] | other results
Cc1c(NC(=O)Oc2ccc(S(N)(=O)=O)cc2)oc2ccccc12 | 34.5 nM | 
NS(=O)(=O)c1cc(S(N)(=O)=O)c(NC(=O)Nc2cc3cc(Br)ccc3o2)cc1Cl | 22.8 nM | 
NS(=O)(=O)c1cccc(NC(=O)Nc2cc3cc(Br)ccc3o2)c1 | 20.2 nM | 
Cc1noc(NS(=O)(=O)c2ccc(NC(=O)Nc3oc4ccccc4c3C)cc2)c1C | 560 nM | Ki [2]: > 100000 nM
Cc1c(NC(=O)Nc2cc(Cl)c(S(N)(=O)=O)cc2S(N)(=O)=O)oc2ccccc12 | 53.9 nM | 
Cc1ccc(NC(=O)Nc2oc3ccccc3c2C)cc1S(N)(=O)=O | 8.4 nM | IC50 [3]: 6270 nM; IC50 [4]: 6450 nM
NS(=O)(=O)c1ccccc1NC(=O)Nc1cc2cc(Br)ccc2o1 | 35.8 nM | 
Cc1c(NC(=O)NNC(=O)c2ccc(S(N)(=O)=O)cc2)oc2ccccc12 | 12.6 nM | 
NS(=O)(=O)c1ccc(C(=O)NNC(=O)Nc2cc3cc(Br)ccc3o2)cc1 | 1.8 nM | 
Cc1noc(NS(=O)(=O)c2ccc(NC(=O)Nc3cc4cc(Br)ccc4o3)cc2)c1C | 2300 nM | Ki [2]: > 100000 nM
NS(=O)(=O)c1ccc(NC(=O)Nc2cc3cc(Br)ccc3o2)cc1 | 7.1 nM | 
Cc1ccc(NC(=O)Nc2cc3cc(Br)ccc3o2)cc1S(N)(=O)=O | 5.5 nM | IC50 [3]: 14200 nM; IC50 [4]: 13800 nM
Cc1c(NC(=O)NCCc2ccc(S(N)(=O)=O)cc2)oc2ccccc12 | 7.6 nM | 
Cc1ccc(S(=O)(=O)C/C(=N\Nc2ccc(S(N)(=O)=O)cc2)c2cc3cc(Br)ccc3o2)cc1 |  | Ki [5]: 10 nM
Cc1c(NC(=O)Nc2ccccc2S(N)(=O)=O)oc2ccccc12 | 68.2 nM | 
Cc1c(NC(=O)Nc2cccc(S(N)(=O)=O)c2)oc2ccccc12 | 25.3 nM | 
Cc1c(NC(=O)Nc2ccc(S(=O)(=O)Nc3nccs3)cc2)oc2ccccc12 | 650 nM | 
Cc1c(NC(=O)Nc2ccc(S(N)(=O)=O)cc2)oc2ccccc12 | 10.4 nM | 
O=C(Nc1ccc(S(=O)(=O)Nc2nccs2)cc1)Nc1cc2cc(Br)ccc2o1 | 930 nM | Ki [2]: > 100000 nM
C/C(=N\Nc1ccc(S(N)(=O)=O)cc1)c1cc2cc(Br)ccc2o1 |  | Ki [5]: 27.7 nM
